Source: patent publication US12263248B2, “Compounds and compositions for intracellular delivery of therapeutic agents” (ModernaTX, Inc., priority 2018, dated 2025)

Assays:
[1] = Particle size and polydispersity index of nanoparticle compositions (Zetasizer Nano ZS); type: physicochemical; conditions: Table 1A; for Size (nm): lipid:DSPC:cholesterol:PEG-DMG 50:10:38.5:1.5 mol %
Procedure, shortened: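 Measured in 1×PBS by Zetasizer Nano ZS.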

[2] = Encapsulation efficiency of RNA (QUANT-IT RIBOGREEN RNA assay); type: physicochemical; conditions: Table 1A
Procedure, shortened: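 RiboGreen fluorescence (ex ~480, em ~520 nm) compared between intact samples and Triton X-100-lysed samples after 15 min at 37 °C in TE buffer, pH 7.5. Percent free RNA is the blank-corrected intact/disrupted ratio.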

[3] = Apparent (surface) pKa of the LNP formulation (TNS assay); type: physicochemical; conditions: Table 1A
Procedure, shortened: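 Fluorescence of TNS probe added to LNP samples (mRNA 0.04 mg/mL) was read across 21 buffers of pH about 3-12, triplicate per pH. The inflection point of the sigmoidal fluorescence-vs-pH curve, […], gives apparent pKa; method validated in 1× PBS and Tris/sucrose buffer.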

luciferase (Luc) mRNA [4] = assay: Luc expression, whole body bioluminescence after intravenous administration to mice; type: in vivo; conditions: for Fold increase in total body Luc Flux relative to MC3 at 6 h: Table 3A; for Fold increase in total body Luc Flux relative to MC3 at 6 h / 6 h Lipid/MC3 Avg. Luc Expression / Fold increase AUC Lipid/MC3 / AUC (h * p/s): i.v. administration; for Total Flux 3 hours / Total Flux 6 hours / Total Flux 24 hours: Luc mRNA; for 6 h Lipid/MC3 Avg. Luc Expression / Fold increase AUC Lipid/MC3 / AUC (h * p/s): Table 3C
Procedure, shortened: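 Bioluminescence, read as region-of-interest total flux at 3, 6 and 24 h, followed a single 0.5 mg/kg intravenous dose of Luc mRNA-loaded nanoparticles in mice (n=6). Luciferin substrate (200 μL, 15 mg/mL in PBS) was injected intraperitoneally into CD-1 mice 15 minutes ahead of each imaging point.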

luciferase (Luc) mRNA [5] = assay: Luc expression in liver, lung, spleen and femur 6 hours after intravenous administration; type: in vivo; conditions: mice, 0.5 mpk; for Total Flux Liver / Total Flux Lung / Total Flux Spleen: intravenous
Procedure, shortened: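 LNP-formulated mRNA given IV to mice (n=3) at 0.5 mpk; at 6 h, bioluminescence imaged ex vivo 15 min after IP D-luciferin (15 mg/mL, 200 μL), organs imaged within 25 min. Values are total flux by region of interest.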

PDI [1] | Size (nm) [1] [nm] | EE (%) [2] [%] | pKa [3] | SMILES | Fold increase in total body Luc Flux relative to MC3 at 6 h (luciferase (Luc) mRNA [4]) | Total Flux 3 hours (luciferase (Luc) mRNA [4]; mice, i.v., 0.5 mg/kg) | Total Flux 6 hours (luciferase (Luc) mRNA [4]; mice, i.v., 0.5 mg/kg) | Total Flux 24 hours (luciferase (Luc) mRNA [4]; mice, i.v., 0.5 mg/kg) | Flux in the spleen (luciferase (Luc) mRNA [5]; i.v., in words) | Total Flux Liver (luciferase (Luc) mRNA [5]) | Total Flux Lung (luciferase (Luc) mRNA [5]) | Total Flux Spleen (luciferase (Luc) mRNA [5]) | 6 h Lipid/MC3 Avg. Luc Expression (luciferase (Luc) mRNA [4]) | Fold increase AUC Lipid/MC3 (luciferase (Luc) mRNA [4]) | AUC (h * p/s) (luciferase (Luc) mRNA [4]; Luc) | total flux at 3 hours (luciferase (Luc) mRNA [4]; mice, i.v., 0.5 mg/kg, comparison in words) | Flux in the liver (luciferase (Luc) mRNA [5]; i.v., in words) | Lipid/MC3 AUC (luciferase (Luc) mRNA [4]; Table 3D, intravenous) | AUC (p/s * h) (luciferase (Luc) mRNA [4]; Table 3D, intravenous, Luc)
0.19 | 86.3 | 77.2 | 7.3 | CCCCCCCCCCCOC(=O)CCCCCN(CCO)CCCCCCCC(=O)N(CCCCCCCC)CCCCCCCC [Compound 129, Undecyl 6-((8-(dioctylamino)-8-oxooctyl)(2-hydroxyethyl)amino)hexanoate] | 0.203 | 5.97E+09 | 4.51E+09 | 2.22E+08 | highest | 6.65E+08 | 9.89E+06 | 5.09E+08 |  |  |  |  |  |  | 
0.095 | 167.9 | 75.44 | 7.76 | CCCCCCCCCOC(=O)CCCCCCCN(CCO)CCCCCCCOP(=O)(OCCCCCCCC)OCCCCCCCC [Compound 131, Nonyl 8-((7-((bis(octyloxy)phosphoryl)oxy)heptyl)(2-hydroxyethyl)amino)octanoate] |  | 6.97E+09 | 7.64E+09 | 2.47E+08 |  | 3.52E+08 | 1.45E+07 | 8.32E+08 | 1.05 | 1.13 | 9.29E+10 |  |  |  | 
0.098 | 66.0 | 91.48 | 6.38 | CCCCCCCCC(CCCCCC)C(=O)OCCCCCCCCCN(CCO)CCCCCCCCCOC(=O)C(CCCCCC)CCCCCCCC (stereo not drawn) [Compound 133, ((2-Hydroxyethyl)azanediyl)bis(nonane-9,1-diyl) bis(2-hexyldecanoate)] |  | 3.32E+10 | 2.93E+10 | 4.74E+08 |  | 2.94E+09 | 3.18E+06 | 1.77E+07 | 4.02 | 4.39 | 3.62E+11 |  |  |  | 
0.110 | 85.6 | 94.62 | 6.66 | CCCCCCCCCOC(=O)CCCCCCCN(CCO)CCCCCCCCCOC(=O)C(CCCCCC)CCCCCCCC (stereo not drawn) [Compound 134, 9-((2-Hydroxyethyl)(8-(nonyloxy)-8-oxooctyl)amino)nonyl 2-hexyldecanoate] |  | 2.01E+10 | 2.91E+10 | 8.00E+08 |  | 1.73E+09 | 2.82E+06 | 1.85E+07 | 3.99 | 4.16 | 3.43E+11 |  |  |  | 
0.130 | 89.5 | 90.20 | 6.47 | CCCCCCCCC(C)OC(=O)CCCCCCCN(CCO)CCCCCCCOC(=O)C(CCCCCCCC)CCCCCCCC (stereo not drawn) [Compound 135, 7-((8-(Decan-2-yloxy)-8-oxooctyl)(2-hydroxyethyl)amino)heptyl 2-octyldecanoate] |  | 1.24E+11 | 9.90E+10 | 2.51E+09 |  | 1.65E+10 | 2.71E+07 | 1.39E+08 | 13.6 | 15.2 | 1.25E+12 | highest | highest |  | 

Further lines, the compound ahead of its results:

SMILES | PDI [1] | Size (nm) [1] [nm] | EE (%) [2] [%] | pKa [3] | Fold increase in total body Luc Flux relative to MC3 at 6 h (luciferase (Luc) mRNA [4]) | Total Flux 3 hours (luciferase (Luc) mRNA [4]; mice, i.v., 0.5 mg/kg) | Total Flux 6 hours (luciferase (Luc) mRNA [4]; mice, i.v., 0.5 mg/kg) | Total Flux 24 hours (luciferase (Luc) mRNA [4]; mice, i.v., 0.5 mg/kg) | Flux in the spleen (luciferase (Luc) mRNA [5]; i.v., in words) | Total Flux Liver (luciferase (Luc) mRNA [5]) | Total Flux Lung (luciferase (Luc) mRNA [5]) | Total Flux Spleen (luciferase (Luc) mRNA [5]) | 6 h Lipid/MC3 Avg. Luc Expression (luciferase (Luc) mRNA [4]) | Fold increase AUC Lipid/MC3 (luciferase (Luc) mRNA [4]) | AUC (h * p/s) (luciferase (Luc) mRNA [4]; Luc) | total flux at 3 hours (luciferase (Luc) mRNA [4]; mice, i.v., 0.5 mg/kg, comparison in words) | Flux in the liver (luciferase (Luc) mRNA [5]; i.v., in words) | Lipid/MC3 AUC (luciferase (Luc) mRNA [4]; Table 3D, intravenous) | AUC (p/s * h) (luciferase (Luc) mRNA [4]; Table 3D, intravenous, Luc)
CCCCCCCCC(C)OC(=O)CCCCCCCN(CCO)CCCCCCCC(=O)N(CCCCCCCC)CCCCCCCC (stereo not drawn) [Compound 130, Decan-2-yl 8-((8-(dioctylamino)-8-oxooctyl)(2-hydroxyethyl)amino)octanoate] | 0.13 | 107.1 | 97 | 6.83 | 4.02 | 6.26E+10 | 8.92E+10 | 1.08E+09 | highest | 8.17E+09 | 5.88E+07 | 1.35E+09 |  |  |  |  |  |  | 
CCCCCCCCOP(=O)(OCCCCCCCC)OCCCCCCCN(CCO)CCCCCCCC(=O)OC(C)CCCCCCCC (stereo not drawn) [Compound 132, Decan-2-yl 8-((7-((bis(octyloxy)phosphoryl)oxy)heptyl)(2-hydroxyethyl)amino)octanoate] | 0.180 | 298.0 | 30.77 | 7.34 |  | 1.77E+09 | 1.36E+09 | 5.31E+07 |  | 1.49E+08 | 1.39E+07 | 3.37E+08 | 0.187 | 0.212 | 1.75E+10 |  |  |  | 
CCCCCCCCC(CCCCCCCC)OC(=O)CCCCCCCN(CCO)CCCCCCCC(=O)N(C)CCCCCCCC [Compound 145, Heptadecan-9-yl 8-((2-hydroxyethyl)(8-(methyl(octyl)amino)-8-oxooctyl)amino)octanoate] | 0.140 | 176.5 | 89.15 | 7.25 |  | 7.11E+09 | 6.50E+09 | 2.38E+08 |  | 5.01E+08 | 1.36E+07 | 4.25E+08 | 0.89 | 0.983 | 8.1E+10 |  |  |  | 
CCCCCCCCC(CCCCCCCC)OC(=O)CCCCCCCN(CCO)CCCCCC(=O)N(C)CCCCCCCC [Compound 146, Heptadecan-9-yl 8-((2-hydroxyethyl)(6-(methyl(octyl)amino)-6-oxohexyl)amino)octanoate] | 0.210 | 97.0 | 91.94 | 7.78 |  | 9.48E+07 | 8.39E+07 | 2.30E+06 |  | 7.24E+06 | 3.88E+06 | 5.11E+07 | 0.011 | 0.013 | 1.04E+09 |  |  |  | 
CCCCCCCCC(CCCCCCCC)OC(=O)CCCCCCCN(C)CCCCCCCCCC(=O)OCCCCCCC [Compound 149, Heptyl 10-((8-(heptadecan-9-yloxy)-8-oxooctyl)(methyl)amino)decanoate] | 0.110 | 62.1 | 98.00 | 6.284 |  | 1.01E+10 | 8.33E+09 | 3.45E+08 |  | 1.11E+09 | 2.69E+06 | 2.71E+07 |  |  |  |  |  | 0.55 | 1.057E+011
